The text below walks through data of patent US11850273B2, “Chemical reprogramming of human glial cells into neurons for brain and spinal cord repair” (The Penn State Research Foundation, priority 2014, dated 2023).

pIC50: −log10 of the molar value. Entries after “also recorded” stand apart in the source; their conditions may differ.

Data set [1] concerns human astrocytes. The experiment in a line: Withdrawal of each individual compound from the 9 small molecule pool. In kind it is cell-based. The note with it: 14 days post initial treatment; for effect of removal from the 9 small molecule pool on number of converted neurons / reprogramming efficiency: SAG and Purmo removed together. From the text: This Example describes analysis of functional roles of each individual compound during chemical reprogramming. To dissect out the contribution of each single molecule toward reprogramming, we performed a series of experiments by withdrawing each individual compound from our cocktail pool (FIG. 6). […] FIG. 6K illustrates the summarized data of drug withdrawing experiments. While it is not a surprise that Tzv had no effect since it mainly acts as a cell survival factor, it was unexpected to find that removing TTNPB had no effect. […] On the other hand, the inhibition of Notch signaling, GSK-3β, and BMP/TGFβ signaling pathways appeared to be important for reprogramming astrocytes into neurons. […] Reprogramming human astrocytes into neurons. The astrocytes were cultured on poly-D-lysine (Sigma) coated coverslips (12 mm) at a density of 50,000 cells per coverslip in 24-well plates (BD Biosciences). The cells were cultured in human astrocyte medium until 90% confluence. At day 0 before reprogramming, half of the culture medium was replaced by N2 medium consisting of DMEM/F12 (Gibco), penicillin/streptomycin (Gibco) and N2 supplements (Gibco). The following day (Day 1), the culture medium was completely replaced by N2 medium supplemented with small molecules, or with 1% DMSO in control group. […] To promote synaptic maturation of converted neurons, brain-derived neurotrophic factor (BDNF, 20 ng/Ml, Invitrogen), Insulin-like growth factor 1 (IGF-1, 10 ng/ml, Invitrogen) and neurotrophin 3 (NT-3, 10 ng/ml, Invitrogen) were added in neuronal differentiation medium at day 9 and were refreshed every four days until day 30 (Song et al., 2002).

Data set [2] concerns Notch. The note with it: cited from earlier work.
Data set [3] addresses gamma secretase. The conditions noted are these: read-out: IC50 γ-secretase; cited from earlier work.
The conditions of data set [4]: cited from earlier work.
In data set [5] the test system is Aβ40 and Aβ42 in SH-SY5Y neuroblastoma cells. The conditions noted are these: cited from earlier work.
The test system of data set [6] is human cortical astrocytes (HA1800, ScienCell). The format is cell-based. The conditions noted are these: VPA in reprogramming medium longer than 2 days.
Data set [7] concerns the target GSK-3β (Homo sapiens, UniProt P49841). The note with it: cited from earlier work.
In data set [8] the test system is mouse embryonic stem cells. The conditions noted are these: At 400 Nm; cited from earlier work.
Data set [9] deals with human astrocyte-converted neurons. Nature of the data set: Patch clamp whole-cell recordings of human astrocyte-converted neurons.
The test system of data set [10] is BACE1, BACE2, α-secretase, the proteasome or GSK3β. The note with it: cited from earlier work.
Data set [11] deals with Notch cleavage and Notch-mediated intracellular signaling. The conditions noted are these: cited from earlier work.
Data set [12] deals with TGFβR-I (Homo sapiens, UniProt P36897). The conditions noted are these: cited from earlier work.
Sequence of TGFβR-I (P36897 34-503): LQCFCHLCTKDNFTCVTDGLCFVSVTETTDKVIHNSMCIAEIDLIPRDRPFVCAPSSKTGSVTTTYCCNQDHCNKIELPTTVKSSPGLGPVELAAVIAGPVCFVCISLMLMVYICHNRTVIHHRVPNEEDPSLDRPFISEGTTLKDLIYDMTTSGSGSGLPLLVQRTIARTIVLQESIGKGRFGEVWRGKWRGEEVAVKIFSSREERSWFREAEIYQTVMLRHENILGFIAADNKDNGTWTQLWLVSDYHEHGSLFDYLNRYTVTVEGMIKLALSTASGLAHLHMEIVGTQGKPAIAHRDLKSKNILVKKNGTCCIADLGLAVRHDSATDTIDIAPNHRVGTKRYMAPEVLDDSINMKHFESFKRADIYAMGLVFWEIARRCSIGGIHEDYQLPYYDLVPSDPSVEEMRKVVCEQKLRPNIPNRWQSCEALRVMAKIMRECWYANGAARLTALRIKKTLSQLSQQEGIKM
Data set [13] has as its system Aβ42 in human neuroblastoma cells. The conditions noted are these: cited from earlier work.
Data set [14] relates to Aβ40 in human neuroblastoma cells. The conditions noted are these: cited from earlier work.

Sequence of GSK-3β (P49841 whole entry, species assumed): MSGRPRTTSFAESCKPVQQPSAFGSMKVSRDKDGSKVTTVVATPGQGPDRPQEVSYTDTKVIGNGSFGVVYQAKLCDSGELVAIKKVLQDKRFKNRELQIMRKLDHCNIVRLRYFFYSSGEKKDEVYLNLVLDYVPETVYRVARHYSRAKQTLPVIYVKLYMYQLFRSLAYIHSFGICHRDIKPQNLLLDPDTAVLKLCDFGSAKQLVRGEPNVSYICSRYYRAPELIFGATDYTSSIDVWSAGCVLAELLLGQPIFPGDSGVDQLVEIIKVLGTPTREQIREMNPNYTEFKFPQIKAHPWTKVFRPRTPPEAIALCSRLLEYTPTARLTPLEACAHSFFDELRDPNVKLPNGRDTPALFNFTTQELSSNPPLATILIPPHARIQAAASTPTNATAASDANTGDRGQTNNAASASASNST

As to `O=C(NCc1ccccc1)c1csc(Nc2ccncn2)n1` [Tzv, thiazovivin], the “effect of individual removal from the 9 small molecule pool on number of converted neurons / reprogramming efficiency” value in [1] is reported as “did not affect; also recorded: did not have a significant effect”.

For the compound `C[C@H](NC(=O)Cc1cc(F)cc(F)c1)C(=O)N[C@H](C(=O)OC(C)(C)C)c1ccccc1` [DAPT], the “effect of individual removal from the 9 small molecule pool on number of converted neurons / reprogramming efficiency” value in [1] is “significantly reduced; also recorded: most significant reduction”. Turning to `C[C@H](NC(=O)CCC(F)(F)F)C(=O)N[C@@H]1C(=O)N(CCO)c2ncccc2-c2ccccc21` [LY3039478], the pIC50 in data set [2] was 9.39. Regarding `CC(C)(C(=O)NCC(F)(F)C(F)(F)F)C(=O)N[C@@H]1C(=O)Nc2ccccc2-c2ccccc21` [RO4929097], the pIC50 in [3] was 8.40.

Consider `N#Cc1ccc2[nH]c(O)c(-c3ccc(CN4CCOCC4)cn3)c2c1` [AZD1080], for which the “oral activity and brain permeability” value in data set [4] is recorded as “selective, orally active, brain permeable GSK3 inhibitor”. Take `O=S(=O)(NC1CCC(c2cc(F)ccc2F)(S(=O)(=O)c2ccc(Cl)cc2)CC1)C(F)(F)F` (stereo not shown) [MRK 560]: the pIC50 in [5] is 9.19. Further, in data set [4], the “oral bioavailability” value is “Orally bioavailable”.

`c1ccc2c(Oc3nc(Nc4ccc(N5CCOCC5)cc4)c4ncn(C5CCCCC5)c4n3)cccc2c1` [Purmo, purmorphamine]: the “effect of removal from the 9 small molecule pool on number of converted neurons / reprogramming efficiency” value in [1] was “slightly reduced”. For `CCCC(CCC)C(=O)O` [VPA, valproic acid], the cell death result in [6] is “increased cell death”. Further, the “effect of individual removal from the 9 small molecule pool on number of converted neurons / reprogramming efficiency” value in data set [1] is on record as “slightly reduced”. `Nc1cccc(-c2cc3c(Oc4cccc(O)c4)ncnc3[nH]2)c1` [TWS119]: the pIC50 in [7] was 7.52. Also, the “neurogenesis in mouse embryonic stem cells” value in data set [8] was “TWS119 induces neurogenesis in mouse embryonic”. Consider `C/C(=C\c1ccc(C(=O)O)cc1)c1ccc2c(c1)C(C)(C)CCC2(C)C` [TTNPB], for which the “effect of individual removal from the 9 small molecule pool on number of converted neurons / reprogramming efficiency” value in data set [1] is on record as “did not affect; also recorded: did not have a significant effect”. On the same count and under the same terms, with `NC(=O)c1ccc(-c2nc(-c3ccc4c(c3)OCO4)c(-c3ccccn3)[nH]2)cc1` [SB431542, -[4-(1,3-benzodioxol-5-yl)-5-(2-pyridinyl)-1H-imidazol-2-yl]benzamide] the entry was “significantly reduced”.

DNQX: the “effect on the majority of synaptic events at −70 mV” value in [9] was “blocked”. As for `COc1oc(=O)c2cc(N)ccc2c1Cl` [LK 6], in data set [10], the “activity on BACE1, BACE2, α-secretase, the proteasome or GSK3β” value is reported as “signaling. Displays no activity on BACE1, BACE2,”. For the same compound, the “effect on Notch cleavage and Notch-mediated intracellular signaling” value in [11] was “no effect”. Turning to LY364947, the “selectivity over TGFβR-II” value in data set [12] is reported as “shows 7-fold selectivity over TGFβR-II”. For the compound `CNC1CCC(N(Cc2cccc(-c3ccncc3)c2)C(=O)c2sc3ccccc3c2Cl)CC1` (stereo not shown) [SAG], the “effect of removal from the 9 small molecule pool on number of converted neurons / reprogramming efficiency” value in data set [1] is “slightly reduced”. Take `CC(C)C[C@H](NC(=O)[C@H](Cc1ccccc1)C[C@@H](O)[C@H](Cc1ccccc1)NC(=O)OC(C)(C)C)C(=O)N[C@@H](Cc1ccccc1)C(N)=O` [L-685, 458]: the pIC50 in data set [3] is 7.77; in data set [13] it was 7.17; in [14], 7.32.
